Reference: patent US20260327202A1, “COMPOUND CONTAINING 2-METHYL-2-(3-(PIPERIDIN-3-YL)PHENOXY)-2-METHYLPROPANAMIDE SKELETON” (JIANGSU MINGSHENG JUTAI BIOTECHNOLOGY CO. LTD, priority 2023, published 2026)
pIC50, pKd: −log10 of the molar value.

How the values were obtained:
[1] = system: SW480 cells; assay: CCK8 assay, SW480 cells; format: cell-based; conditions: CCK-8, SW480 cells, 24 hours incubation at 37 °C, DMEM (2% FBS), OD450-OD600
Description: • 1. SW480 Cell plate • Cells digested, counted, and laid a 96-well plate (flat-bottomed transparent) with 10,000 cells/100 ul DMEM (10% FBS) per well; • 2. Observe the cell status on the next day, and start adding medicine after the cells are intact; • 3. Dilute the compound with DMEM (2% FBS) and dilute it in a gradient at concentrations of 20 μM, 10 μM, 5 μM, 2.5 μM, 1.25 μM, 0.625 μM, 0.3125 μM, 0.15625 μM, 0 μM (equal volume DMSO); • 4. Add 100 μl of the above compounds of different concentrations to each well, and make 2 compound wells for each concentration gradient; Leave 3 blank wells (DMEM 2% FBS culture medium only, no cells); • 5. Incubate at 37 °C for 24 hours; • 6. […] Measure absorbance at 450 nm and absorbance at 600 nm (exclude interference from the reagent base color and the absorbance value of the plate itself); • 9. The final absorbance value is OD450 nm-OD600 nm, and the rejection rate is calculated.
Suppression Rate=[(Ac−As)/(Ac−Ab)]×100% • As: absorbance of the experimental wells (medium containing cells, CCK-8, drug to be tested); • Ac: absorbance of the control wells (medium containing cells, CCK-8, no drug to be tested); • Ab: Absorbance of blank wells (medium without cells and drug to be tested, CCK-8).

[2] = biological target: T1, β-catenin (Homo sapiens, UniProt P35222); assay: SRP test (Biacore T200), binding to ligand β-catenin; conditions: Biacore T200, CM5 chip with β-catenin, HEPES pH 7.4, 0.1% DMSO, 25 °C
T1 sequence (P35222 1-781): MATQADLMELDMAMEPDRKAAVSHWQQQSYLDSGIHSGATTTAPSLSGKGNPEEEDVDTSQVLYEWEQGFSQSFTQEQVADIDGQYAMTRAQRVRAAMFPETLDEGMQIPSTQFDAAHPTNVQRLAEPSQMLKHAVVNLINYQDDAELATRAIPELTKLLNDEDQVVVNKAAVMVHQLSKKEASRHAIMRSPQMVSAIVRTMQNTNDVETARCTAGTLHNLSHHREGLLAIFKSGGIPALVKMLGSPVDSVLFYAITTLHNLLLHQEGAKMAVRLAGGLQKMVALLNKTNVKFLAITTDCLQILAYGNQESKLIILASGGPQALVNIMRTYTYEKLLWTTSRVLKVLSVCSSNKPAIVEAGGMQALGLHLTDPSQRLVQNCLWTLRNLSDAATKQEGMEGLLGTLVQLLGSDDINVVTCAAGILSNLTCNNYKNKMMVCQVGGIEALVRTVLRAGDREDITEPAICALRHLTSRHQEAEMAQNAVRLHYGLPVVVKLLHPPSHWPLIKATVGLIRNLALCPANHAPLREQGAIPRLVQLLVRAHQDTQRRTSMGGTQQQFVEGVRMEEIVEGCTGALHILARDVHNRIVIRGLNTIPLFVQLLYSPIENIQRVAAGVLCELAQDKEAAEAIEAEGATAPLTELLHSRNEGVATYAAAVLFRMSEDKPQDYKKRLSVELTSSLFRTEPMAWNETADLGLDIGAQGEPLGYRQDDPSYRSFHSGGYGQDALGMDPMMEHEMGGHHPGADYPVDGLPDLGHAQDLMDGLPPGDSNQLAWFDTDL
Description: • 1. Experimental settings • 1. The analyte is in powder form. • 2. The temperature is 25 °C • 3. The analysis equipment adopts Biacore T200 instrument. • 2. Sample dilution • 1. Ligand β-catenin diluted with HEPES (pH 7.4), 0.5 mg/mL • 2. The analyte was dissolved in DMSO and diluted with 0.1% DMSO HEPES (pH 7.4). • 3. Experimental process • 1. Operate and start according to the standard of Biacore T200 instrument. • 2. Prepare buffer HEPES (pH 7.4) and 500 ml of deionized water for washing syringes (filtered by […] membrane). • 3. Start installing the chip and install the Cm5 chip according to the standard process. • 4. Prepare to start the formal experiment, the buffer will flush the flow path system inside the entire system at a high flow rate. • 5. Choose the appropriate program according to the sample size. • 6. Start capturing the chip and prepare a sufficient volume of ligands β-catenin, EDC/NHS, and blocking solution. The conjugation procedure was started with a conjugation time of 7 min, a flow rate of […], and a final ligand conjugation of approximately 16000RU. • 7. After the conjugation is completed, the sample detection is started, and the analyte binding time is set to 120 s. • Flow rate of 30 μL/min; The dissociation time was 200 s and the flow rate was 30 μL/min. Regeneration time 30 s, • The flow rate is 30 μL/min. • 8. […]

Row | pKd [2] | Structure (SMILES) | further results
1 |  | CC(C)c1ccc(-c2cccc(S(=O)(=O)N3CCCC(c4cccc(OC(C)(C)C(=O)NCC(=O)N5CCC[C@H]5CCN)c4)C3)c2)cc1 (stereo partly drawn) [Compound 115-014, N-(2-((S)-2-(2-aminoethyl)pyrrolidin-1-yl)-2-oxyethyl)-2-(3-(1-((4′-isopropyl-[1,1′-Biphenyl]-3-yl)sulfonylpiperidine-3-yl)phenoxy)-2-methylpropionamide)] | pIC50 ([1]; Homo sapiens, read-out: SW^10 IC50): 4.28
2 | 3.55 | CC(C)c1ccc(-c2cccc(S(=O)(=O)N3CCCC(c4cccc(OC(C)(C)C(=O)NCC(=O)N5CCC[C@H]5CN)c4)C3)c2)cc1 (stereo partly shown) [Compound 115-010] | 
3 | 3.12 | CC(C)c1ccc(-c2cccc(S(=O)(=O)N3CCCC(c4cccc(OC(C)(C)C(=O)NCC(=O)N5CC[C@@H](CN)C5)c4)C3)c2)cc1 (stereo partly shown) [Compound 115-012] | 
4 |  | CC(C)(Oc1cccc(C2CCCN(C(=O)NCc3ccc(-c4cn[nH]c4)cc3)C2)c1)C(=O)NCC(=O)N1CCCC1CN (stereo not shown) [Compound 115-020] | SW^10 IC50 [1]: Inactive
